Data from ChEMBL document CHEMBL5537197, “Discovery of Novel Coumarin-quinolinium Derivatives as Pan-KRAS Translation Inhibitors by Targeting 5'-UTR RNA G-Quadruplexes” (J Med Chem, 2024).

Experiments:
Format in all cases: functional, cell-based
MIA PaCa-2 = experiment: Cytotoxicity against human MIA PaCa-2 cells harboring KRAS G12C mutant assessed as cell growth inhibition incubated for 24 hrs by MTT assay; settings: MIA PaCa-2, 24 h
PANC-1 = experiment: Cytotoxicity against human PANC-1 cells harboring KRAS G12D mutant assessed as cell growth inhibition incubated for 24 hrs by MTT assay; settings: PANC-1, 24 h
[1] = Cytotoxicity against human PANC-1 cells […] assessed as cell growth inhibition incubated for 24 hrs by MTT assay; settings: PANC-1, 24 h
NCM460 = experiment: Cytotoxicity against human NCM460 cells harboring wild-type KRAS assessed as cell growth inhibition incubated for 24 hrs by MTT assay; settings: NCM460, 24 h

CCN(CC)c1ccc2cc(/C=C/c3ccc4cc(F)c(NCCCOC(C)C)cc4[n+]3C)c(=O)oc2c1
IC50 (MIA PaCa-2): 1.5 µM | IC50 (PANC-1): 2.9 µM | IC50 [1]: 6 µM | IC50 (NCM460): 23.2 µM

CCN(CC)CCCn1cc(CNc2cc3c(cc2F)c(N2CCN(C)CC2)cc(/C=C/c2cc4ccc(N(CC)CC)cc4oc2=O)[n+]3C)nn1
IC50 (MIA PaCa-2): > 40 µM | IC50 (PANC-1): > 40 µM | IC50 [1]: > 40 µM | IC50 (NCM460): > 40 µM

CCN(CC)c1ccc2cc(/C=C/c3cc(N4CCN(C)CC4)c4cc(F)c(NCc5cn(CCCN(C)C)nn5)cc4[n+]3C)c(=O)oc2c1
IC50 (MIA PaCa-2): > 40 µM | IC50 (PANC-1): 35.2 µM | IC50 [1]: > 40 µM | IC50 (NCM460): > 40 µM

CCN(CC)c1ccc2cc(/C=C/c3cc(N4CCN(C)CC4)c4cc(F)c(NCc5cn(CCC(=O)OC)nn5)cc4[n+]3C)c(=O)oc2c1
IC50 (MIA PaCa-2): > 40 µM | IC50 (PANC-1): > 40 µM | IC50 [1]: > 40 µM | IC50 (NCM460): > 40 µM

CCN(CC)c1ccc2cc(/C=C/c3ccc4cc(F)c(NCCN(C(C)C)C(C)C)cc4[n+]3C)c(=O)oc2c1
IC50 (MIA PaCa-2): 1.3 µM | IC50 (PANC-1): 3.4 µM | IC50 [1]: 13 µM | IC50 (NCM460): 15 µM

CCN(CC)c1ccc2cc(/C=C/c3ccc4cc(F)c(N5CCCCC5)cc4[n+]3C)c(=O)oc2c1
IC50 (MIA PaCa-2): 11.4 µM | IC50 (PANC-1): 20.6 µM | IC50 [1]: > 40 µM | IC50 (NCM460): > 40 µM

CCN(CC)c1ccc2cc(/C=C/c3ccc4cc(F)c(NCCCn5ccnc5)cc4[n+]3C)c(=O)oc2c1
IC50 (MIA PaCa-2): 13.4 µM | IC50 (PANC-1): > 40 µM | IC50 [1]: > 40 µM | IC50 (NCM460): > 40 µM

CCN(CC)c1ccc2cc(/C=C/c3cc(N4CCN(C)CC4)c4cc(F)c(NCc5cn(CCCN6CCCC6)nn5)cc4[n+]3C)c(=O)oc2c1
IC50 (MIA PaCa-2): > 40 µM | IC50 (PANC-1): > 40 µM | IC50 [1]: > 40 µM | IC50 (NCM460): > 40 µM

CCN(CC)c1ccc2cc(/C=C/c3cc(NCCCn4ccnc4)c4cc(F)c(NCCCn5ccnc5)cc4[n+]3C)c(=O)oc2c1
IC50 (MIA PaCa-2): 33.2 µM | IC50 (PANC-1): > 40 µM | IC50 [1]: > 40 µM | IC50 (NCM460): > 40 µM

CCN(CC)c1ccc2cc(/C=C/c3ccc4cc(F)c(NCCc5nc6ccccc6[nH]5)cc4[n+]3C)c(=O)oc2c1
IC50 (MIA PaCa-2): 4 µM | IC50 (PANC-1): 19.2 µM | IC50 [1]: > 40 µM | IC50 (NCM460): > 40 µM

CCN(CC)c1ccc2cc(/C=C/c3ccc4cc(F)c(NCc5ccccc5C(F)(F)F)cc4[n+]3C)c(=O)oc2c1
IC50 (MIA PaCa-2): < 1.3 µM | IC50 (PANC-1): 7 µM | IC50 [1]: 3 µM | IC50 (NCM460): 12.2 µM

CCN(CC)c1ccc2cc(/C=C/c3ccc4cc(F)c(N5CCN(Cc6cn(CCCO)nn6)CC5)cc4[n+]3C)c(=O)oc2c1
IC50 (MIA PaCa-2): > 40 µM | IC50 (PANC-1): > 40 µM | IC50 [1]: > 40 µM | IC50 (NCM460): > 40 µM

CCN(CC)c1ccc2cc(/C=C/c3cc(NCCN4CCCC4)c4cc(F)c(NCCN5CCCC5)cc4[n+]3C)c(=O)oc2c1
IC50 (MIA PaCa-2): 17 µM | IC50 (PANC-1): > 40 µM | IC50 [1]: > 40 µM | IC50 (NCM460): > 40 µM

CCN(CC)c1ccc2cc(/C=C/c3cc(NCCCN4CCCC4)c4cc(F)c(NCCCN5CCCC5)cc4[n+]3C)c(=O)oc2c1
IC50 (MIA PaCa-2): > 40 µM | IC50 (PANC-1): > 40 µM | IC50 [1]: > 40 µM | IC50 (NCM460): > 40 µM

CCN(CC)c1ccc2cc(/C=C/c3ccc4cc(F)c(N5CCOCC5)cc4[n+]3C)c(=O)oc2c1
IC50 (MIA PaCa-2): 29.6 µM | IC50 (PANC-1): 13.2 µM | IC50 [1]: > 40 µM | IC50 (NCM460): > 40 µM

CCN(CC)c1ccc2cc(/C=C/c3ccc4cc(F)c(N5CCN(Cc6cn(CCCN7CCCC7)nn6)CC5)cc4[n+]3C)c(=O)oc2c1
IC50 (MIA PaCa-2): > 40 µM | IC50 (PANC-1): 19.8 µM | IC50 [1]: 13 µM | IC50 (NCM460): > 40 µM

CCN(CC)c1ccc2cc(/C=C/c3cc(N4CCN(C)CC4)c4cc(F)c(NCc5cn(CCCN6CCOCC6)nn5)cc4[n+]3C)c(=O)oc2c1
IC50 (MIA PaCa-2): > 40 µM | IC50 (PANC-1): > 40 µM | IC50 [1]: > 40 µM | IC50 (NCM460): > 40 µM

CCN(CC)c1ccc2cc(/C=C/c3cc(N4CCN(C)CC4)c4cc(F)c(N5CCN(C)CC5)cc4[n+]3C)c(=O)oc2c1
IC50 (MIA PaCa-2): 16 µM | IC50 (PANC-1): 26.4 µM | IC50 [1]: > 40 µM | IC50 (NCM460): > 40 µM

CCN(CC)c1ccc2cc(/C=C/c3ccc4cc(F)c(Nc5ccc6nc(C)[nH]c6c5)cc4[n+]3C)c(=O)oc2c1
IC50 (MIA PaCa-2): 12 µM | IC50 (PANC-1): 13 µM | IC50 [1]: > 40 µM | IC50 (NCM460): 14.8 µM

CCN(CC)c1ccc2cc(/C=C/c3ccc4cc(F)c(N5CCN(Cc6cn(CCCN7CCOCC7)nn6)CC5)cc4[n+]3C)c(=O)oc2c1
IC50 (MIA PaCa-2): 23.4 µM | IC50 (PANC-1): > 40 µM | IC50 [1]: > 40 µM | IC50 (NCM460): > 40 µM

CCN(CC)c1ccc2cc(/C=C/c3ccc4cc(F)c(N5CCN(Cc6cn(CCCN7CCCCC7)nn6)CC5)cc4[n+]3C)c(=O)oc2c1
IC50 (MIA PaCa-2): 26.8 µM | IC50 (PANC-1): > 40 µM | IC50 [1]: > 40 µM | IC50 (NCM460): > 40 µM

CCN1CCN(c2ccc(Nc3cc4c(ccc(/C=C/c5cc6ccc(N(CC)CC)cc6oc5=O)[n+]4C)cc3F)cc2)CC1
IC50 (MIA PaCa-2): 8.8 µM | IC50 (PANC-1): 15.2 µM | IC50 [1]: > 40 µM | IC50 (NCM460): > 40 µM

CCN(CC)c1ccc(Nc2cc3c(ccc(/C=C/c4cc5ccc(N(CC)CC)cc5oc4=O)[n+]3C)cc2F)cc1
IC50 (MIA PaCa-2): < 13 µM | IC50 (PANC-1): < 1.3 µM | IC50 [1]: < 1.3 µM | IC50 (NCM460): < 1.3 µM

CCN(CC)c1ccc2cc(/C=C/c3ccc4cc(F)c(NCC5CCOCC5)cc4[n+]3C)c(=O)oc2c1
IC50 (MIA PaCa-2): 10.8 µM | IC50 (PANC-1): 32.4 µM | IC50 [1]: 11.3 µM | IC50 (NCM460): > 40 µM

CCN(CC)c1ccc2cc(/C=C/c3ccc4cc(F)c(NCCc5cccs5)cc4[n+]3C)c(=O)oc2c1
IC50 (MIA PaCa-2): < 1.3 µM | IC50 (PANC-1): < 1.3 µM | IC50 [1]: < 1.3 µM | IC50 (NCM460): 4.4 µM

CCN(CC)c1ccc2cc(/C=C/c3ccc4cc(F)c(N5CCN(Cc6cn(CCc7cccs7)nn6)CC5)cc4[n+]3C)c(=O)oc2c1
IC50 (MIA PaCa-2): 6.8 µM | IC50 (PANC-1): 23.8 µM | IC50 [1]: > 40 µM | IC50 (NCM460): > 40 µM

CCN(CC)c1ccc2cc(/C=C/c3cc(N4CCN(C)CC4)c4cc(F)c(NCc5cn([C@@H]6O[C@H](CO)[C@@H](O)[C@H](O)[C@H]6O)nn5)cc4[n+]3C)c(=O)oc2c1
IC50 (MIA PaCa-2): > 40 µM | IC50 (PANC-1): > 40 µM | IC50 [1]: > 40 µM | IC50 (NCM460): > 40 µM

CCN(CC)c1ccc2cc(/C=C/c3cc(N4CCN(C)CC4)c4cc(F)c(NCc5cn(CCC(=O)O)nn5)cc4[n+]3C)c(=O)oc2c1
IC50 (MIA PaCa-2): > 40 µM | IC50 (PANC-1): > 40 µM | IC50 [1]: > 40 µM | IC50 (NCM460): > 40 µM

CCN(CC)c1ccc2cc(/C=C/c3ccc4cc(F)c(N5CCN(C(=O)C(C)C)CC5)cc4[n+]3C)c(=O)oc2c1
IC50 (MIA PaCa-2): 3.4 µM | IC50 (PANC-1): 39.6 µM | IC50 [1]: > 40 µM | IC50 (NCM460): > 40 µM

CCN(CC)c1ccc2cc(/C=C/c3ccc4cc(F)c(N5CCN(Cc6cn(CCCN(C)C)nn6)CC5)cc4[n+]3C)c(=O)oc2c1
IC50 (MIA PaCa-2): > 40 µM | IC50 (PANC-1): > 40 µM | IC50 [1]: > 40 µM | IC50 (NCM460): > 40 µM

CCN(CC)CCCn1cc(CN2CCN(c3cc4c(ccc(/C=C/c5cc6ccc(N(CC)CC)cc6oc5=O)[n+]4C)cc3F)CC2)nn1
IC50 (MIA PaCa-2): > 40 µM | IC50 (PANC-1): > 40 µM | IC50 [1]: > 40 µM | IC50 (NCM460): > 40 µM

CCN(CC)c1ccc2cc(/C=C/c3ccc4cc(F)c(N5CCN(Cc6cn(CCC(=O)O)nn6)CC5)cc4[n+]3C)c(=O)oc2c1
IC50 (MIA PaCa-2): 12.6 µM | IC50 (PANC-1): > 40 µM | IC50 [1]: > 40 µM | IC50 (NCM460): > 40 µM

CCN(CC)c1ccc2cc(/C=C/c3ccc4cc(F)c(NCCO)cc4[n+]3C)c(=O)oc2c1
IC50 (MIA PaCa-2): 7.2 µM | IC50 (PANC-1): 38.2 µM | IC50 [1]: > 40 µM | IC50 (NCM460): > 40 µM

CCN(CC)c1ccc2cc(/C=C/c3ccc4cc(F)c(NCCOCCO)cc4[n+]3C)c(=O)oc2c1
IC50 (MIA PaCa-2): 9.8 µM | IC50 (PANC-1): > 40 µM | IC50 [1]: > 40 µM | IC50 (NCM460): > 40 µM
